Measurements: patent US7145009B2, “Pirazino(aza)indole derivatives” (priority 1999, dated 2006)
Counter-ions that a name gives are not always drawn. Like-named read-outs stand apart in the source and are kept apart here.

Key:
[1] = target: T1, h5-HT2C receptor (CHO cells) (Homo sapiens, UniProt P28335); experiment: Functional activity, FLIPR calcium assay, h5-HT2C; assay type: cell-based; details: for Emax: CHO, read-out: h5-HT2C Relative Efficacy
T1 construct: expressed in transfected cells; host or cells: CHO cells
T1 sequence (P28335 33-458): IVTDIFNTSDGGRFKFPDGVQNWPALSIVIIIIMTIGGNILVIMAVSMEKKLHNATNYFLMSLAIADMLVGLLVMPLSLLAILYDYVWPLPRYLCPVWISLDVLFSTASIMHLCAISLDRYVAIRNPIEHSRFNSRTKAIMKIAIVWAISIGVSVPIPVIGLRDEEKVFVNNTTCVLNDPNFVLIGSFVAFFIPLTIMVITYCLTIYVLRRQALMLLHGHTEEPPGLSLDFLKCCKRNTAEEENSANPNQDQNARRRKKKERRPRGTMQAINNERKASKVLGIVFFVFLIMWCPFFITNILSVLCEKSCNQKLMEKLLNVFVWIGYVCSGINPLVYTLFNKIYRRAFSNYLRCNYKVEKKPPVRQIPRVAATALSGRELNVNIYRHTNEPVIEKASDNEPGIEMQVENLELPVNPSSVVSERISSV
Procedure: (§1) The functional activity of compounds of formula (I) was assayed using a Fluorimetric Imaging Plate reader (FLIPR):
(§2) CHO cells expressing either the h5-HT2C or h5-HT2A receptors were counted and plated into standard 96 well microtitre plates before the day of testing to give a confluent monolayer. The following day the cells were dye loaded with the calcium sensitive dye Fluo 3-AM by incubation with serum free culture maintenance media containing pluronic acid and Fluo 3-AM dissolved in DMSO at 37° C. in a CO2 incubator at 95% humidity for approximately 90 minutes. Unincorporated dye was removed by washing with Hanks balanced salt solution containing 20 mM HEPES and 2.5 mM probenecid (the assay buffer) using an automated cell washer to leave a total volume of 100 μl/well.
(§3) The drug (dissolved in 50 μl of assay buffer) was added at a rate of 70 μl/sec to each well of the FLIPR 96 well plate during fluorescence measurements. The measurements are taken at 1 sec intervals and the maximum fluorescent signal was measured (approx 10–15 secs after drug addition) and compared with the response produced by 10 μM 5-HT (defined as 100%) to which it is expressed as a percentage response (relative efficacy). Dose response curves were constructed using Graphpad Prism (Graph Software Inc.).

[2] = target: T2, h5-HT2A receptor (CHO cells) (Homo sapiens, UniProt P28223); experiment: Functional activity, FLIPR calcium assay, h5-HT2A; assay type: cell-based; details: for Emax: CHO, read-out: h5-HT2A Relative Efficacy
T2 construct: expressed in transfected cells; host or cells: CHO cells
Procedure: as §1, §2, §3

[3] = target: T3, 5-HT2c receptors in a CHO cell line (Homo sapiens, UniProt P28335); experiment: Binding to 5-HT2c receptor, [3H]-5-HT, Method (a); details: read-out: Ki (2C)
T3 construct: expressed in transfected cells; host or cells: CHO cell line
T3 sequence (P28335 33-458): T1 sequence (P28335 33-458)
Procedure: (§4) The binding of compounds of formula (I) to serotonin receptors was determined in vitro by standard methods. The preparations were investigated in accordance with the assays given hereinafter.
Method (a): For the binding to the 5-HT2c receptor the 5-HT2c receptors were radiolabelled with [^3H]-5-HT. The affinity of the compounds for 5-HT2c receptors in a CHO cell line was determined according to the procedure of D. Hoyer, G. Engel and H. O. Kalkman, European J. Pharmacol., 1985, 118, 13–23.

[4] = target: T4, 5-HT2A receptors in a CHO cell line (Homo sapiens, UniProt P28223); experiment: Binding to 5-HT2A receptor, [125I]-DOI, Method (c); details: read-out: Ki (2A)
T4 construct: expressed in transfected cells; host or cells: CHO cell line
Procedure: as §4
Method (c): For the binding to the 5-HT2A receptor the 5-HT2A receptors were radiolabelled with […]. The affinity of the compounds for 5-HT2A receptors in a CHO cell line was determined according to the procedure of D. J. McKenna and S. J. Peroutka, J. Neurosci., 1989, 9/10, 3482–90.

[5] = target: T5, human 5-HT2B receptors in a CHO cell line (Homo sapiens, UniProt P41595); experiment: Binding to 5-HT2B receptor, [3H]-5-HT, Method (b); details: read-out: Ki (2B)
T5 construct: expressed in transfected cells; host or cells: CHO cell line
Procedure: as §4
Method (b): For the binding to the 5-HT2B receptor the 5-HT2B receptors were radiolabelled with [^3H]-5-HT. The affinity of the compounds for human 5-HT2B receptors in a CHO cell line was determined according to the procedure of K. Schmuck, C. Ullmer, P. Engels and H. Lubbett, FEBS Lett., 1994, 342, 85–90.

[6] = system: 5-HT2c syndrome (splayed limbs, hunched posture, retro-pulsion); experiment: 5-HT2c syndrome, in vivo efficacy of 5-HT2C agonists; details: rats, 1 mg/kg s.c.
Procedure: The efficacy of 5-HT2C agonists was assessed for ability to induce a specific syndrome.
The 5-HT2c syndrome is a rapid screening method to assess the in vivo efficacy of 5-HT2c agonists through their ability to induce three specific behaviours in rats. The animals are dosed with either a positive control (mCPP), test compound or vehicle, either s.c. or p.o. The animals are observed on an open bench, typically 30, 60 and 180 minutes and the degree of syndrome is assessed over a two minute period on a scale of 0–3 depending on the presence and severity of splayed limbs, hunched posture and retro-pulsion, the three specific behaviours which constitute the syndrome. Data is analysed using Kruskal-Wallis Analysis of Variance followed with appropriate post-hoc tests. All statistical analysis are conducted using Excel version 7.0 (Microsoft Corp.) and Statistica version 5.0 (Stasoft, Inc.).

5-HT1A receptors = target: T6, 5-HT1A receptors (Homo sapiens, UniProt P08908); details: literature report; cited from earlier work
T6 sequence (P08908 1-422): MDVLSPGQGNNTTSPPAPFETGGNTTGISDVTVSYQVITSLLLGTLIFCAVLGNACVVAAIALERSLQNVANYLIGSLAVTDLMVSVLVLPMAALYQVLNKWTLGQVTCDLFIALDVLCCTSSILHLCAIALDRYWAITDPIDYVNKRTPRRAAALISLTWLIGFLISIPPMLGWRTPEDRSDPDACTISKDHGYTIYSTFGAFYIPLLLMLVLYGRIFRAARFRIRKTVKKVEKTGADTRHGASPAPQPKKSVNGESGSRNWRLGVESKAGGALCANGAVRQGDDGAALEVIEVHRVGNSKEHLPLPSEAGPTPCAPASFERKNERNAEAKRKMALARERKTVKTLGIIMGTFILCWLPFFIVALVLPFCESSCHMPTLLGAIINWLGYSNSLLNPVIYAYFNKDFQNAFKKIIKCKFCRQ

food intake = details: rats, literature reports; cited from earlier work
[7] = FLIPR, CHO cells, Fluo 3-AM, read-out: h5-HT2C EC50

T2 sequence (P28223 whole entry): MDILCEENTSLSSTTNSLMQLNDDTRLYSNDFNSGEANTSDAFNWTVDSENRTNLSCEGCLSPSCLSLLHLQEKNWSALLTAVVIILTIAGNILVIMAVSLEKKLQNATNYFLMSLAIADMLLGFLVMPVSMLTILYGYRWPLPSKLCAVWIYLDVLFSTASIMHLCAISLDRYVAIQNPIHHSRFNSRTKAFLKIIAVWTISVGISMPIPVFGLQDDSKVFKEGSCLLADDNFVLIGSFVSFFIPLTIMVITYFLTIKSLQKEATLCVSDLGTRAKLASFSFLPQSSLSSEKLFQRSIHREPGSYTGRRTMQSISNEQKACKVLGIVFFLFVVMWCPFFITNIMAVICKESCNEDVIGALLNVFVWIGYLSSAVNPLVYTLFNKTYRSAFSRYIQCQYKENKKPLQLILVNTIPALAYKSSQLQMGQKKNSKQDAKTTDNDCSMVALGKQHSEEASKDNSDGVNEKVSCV
T5 sequence (P41595 whole entry): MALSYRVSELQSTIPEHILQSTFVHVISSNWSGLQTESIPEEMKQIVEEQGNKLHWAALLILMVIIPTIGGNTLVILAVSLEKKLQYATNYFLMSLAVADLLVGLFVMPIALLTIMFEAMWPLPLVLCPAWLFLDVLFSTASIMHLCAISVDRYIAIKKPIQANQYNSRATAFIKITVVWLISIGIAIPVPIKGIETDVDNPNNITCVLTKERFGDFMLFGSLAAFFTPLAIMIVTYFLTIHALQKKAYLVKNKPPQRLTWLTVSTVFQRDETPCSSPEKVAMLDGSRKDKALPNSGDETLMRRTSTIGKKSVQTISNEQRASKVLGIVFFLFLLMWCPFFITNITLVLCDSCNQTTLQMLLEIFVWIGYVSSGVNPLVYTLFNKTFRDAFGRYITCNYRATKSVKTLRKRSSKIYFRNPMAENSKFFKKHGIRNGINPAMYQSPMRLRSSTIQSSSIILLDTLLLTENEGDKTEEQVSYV
T4 sequence (P28223 whole entry): as the sequence (P28223 whole entry) above

Row | SMILES | Emax [1] [%] | EC50 [2] [µM] | Emax [2] [%] | EC50 [1] [µM] | melting point | other results
1 | Clc1ccc2c(c1)CC1CNCCN21 (racemic) [Example 2, (RS) 8-Chloro-1,2,3,4,10,10a-hexahydropyrazino[1,2-a]indole hydrochloride] | 84 | 0.667 | 88 |  |  | EC50 [1, 7]: 0.162 µM
2 | Clc1ccc2c(c1)N1CCNCC1C2 (racemic) [Example 1, (RS) 7-Chloro-1,2,3,4,10,10a-hexahydropyrazino[1,2-a]indole hydrochloride] | 91 | 0.513 | 53 | 0.018 |  | Ki [3]: 0.031 µM; Ki [4]: 0.053 µM; Ki [5]: 0.032 µM; time for which significant pharmacological efficacy is maintained (5-HT2c syndrome) [6]: at least 180 minutes
3 | c1ccc2c(c1)CC1CNCCN21 (stereo not shown) [1,2,3,4,10,10a-Hexahydropyrazino[1,2-a]indole] |  |  |  |  |  | selectivity for 5-HT1A receptors over 5-HT2 (binding affinity) (5-HT1A receptors): ten fold
4 | Brc1ccc2c(c1)N1CCNCC1C2 (racemic) [Example 4, (RS) 7-Bromo-1,2,3,4,10,10a-hexahydropyrazino[1,2-a]indole hydrochloride] | 100 | 0.244 | 58 | 0.013 |  | 
5 | CSc1ccc2c(c1)N1CCNCC1C2 (racemic) (as salt: fumarate) [Example 13, (RS) 7(Methylthio)-1,2,3,4,10,10a-hexahydropyrazino[1,2-a]indole fumarate] |  |  |  |  | 196 to 198 °C | 
6 | Fc1cc2c(cc1Cl)N1CCNCC1C2 (racemic) [Example 12, (RS) 7-Chloro-8-fluoro-1,2,3,4,10,10a-hexahydropyrazino[1,2-a]indole hemifumarate] | 92 | 0.106 | 74 | 0.022 |  | 
7 | Clc1ccc2c(c1)CC1CNCCN21 (racemic) (as salt: hydrochloride) [Example 2, (RS) 8-Chloro-1,2,3,4,10,10a-hexahydropyrazino[1,2-a]indole hydrochloride] |  |  |  |  | 258 to 262 °C (dec.) | 
8 | Clc1ccc2c(c1)N1CCNC[C@@H]1C2 [Example 7, (10aS) 7-Chloro-1,2,3,4,10,10a-hexahydropyrazino[1,2-a]indole hydrochloride] | 86 | 0.144 | 67 | 0.161 |  | 
9 | Brc1ccc2c(c1)N1CCNCC1C2 (racemic) (as salt: hydrochloride) [Example 4, (RS) 7-Bromo-1,2,3,4,10,10a-hexahydropyrazino[1,2-a]indole hydrochloride] |  |  |  |  | 243 to 245 °C | 
10 | C[C@H]1CN2c3cc(Cl)ccc3C[C@@H]2CN1 [Example 11, (3S,10aR) 7-Chloro-3-methyl-1,2,3,4,10,10a-hexahydropyrazino[1,2-a]indole hydrochloride] | 92 | 0.527 | 38 | 0.058 |  | 
11 | Fc1cc2c(cc1Cl)N1CCNCC1C2 (racemic) (as salt: fumarate) [Example 12, (RS) 7-Chloro-8-fluoro-1,2,3,4,10,10a-hexahydropyrazino[1,2-a]indole hemifumarate] |  |  |  |  | 195 to 197 °C | 
12 | Clc1cccc(N2CCNCC2)c1 [mCPP, m-chlorophenylpiperazine] |  |  |  |  |  | effect on food intake (food intake): reduce food intake
13 | Cc1cc2c(cc1Cl)N1CCNCC1C2 (racemic) [Example 5, (RS) 7-Chloro-8-methyl-1,2,3,4,10,10a-hexahydropyrazino[1,2-a]indole fumarate] | 93 | 0.11 | 87 | 0.02 |  | 
14 | C[C@H]1CN2c3cc(Cl)ccc3C[C@@H]2CN1 (as salt: hydrochloride) [Example 11, (3S,10aR) 7-Chloro-3-methyl-1,2,3,4,10,10a-hexahydropyrazino[1,2-a]indole hydrochloride] |  |  |  |  | 265 °C (dec.) | 
15 | Clc1cccc2c1CC1CNCCN21 (racemic) (as salt: hydrochloride) [Example 3, (RS) 9-Chloro-1,2,3,4,10,10a-hexahydropyrazino[1,2-a]indole hydrochloride] |  |  |  |  | 265 to 269 °C (dec.) | 
16 | Clc1ccc2c(c1)N1CCNC[C@H]1C2 [Example 8, (10aR) 7-Chloro-1,2,3,4,10,10a-hexahydropyrazino[1,2-a]indole hydrochloride] | 87 | 0.1 | 59 | 0.003 |  | 
17 | Clc1ccc2c(c1)N1CCNCC1C2 (racemic) (as salt: hydrochloride) [Example 1, (RS) 7-Chloro-1,2,3,4,10,10a-hexahydropyrazino[1,2-a]indole hydrochloride] |  |  |  |  | 235 °C (dec.) | 
18 | Clc1cccc2c1CC1CNCCN21 (racemic) [Example 3, (RS) 9-Chloro-1,2,3,4,10,10a-hexahydropyrazino[1,2-a]indole hydrochloride] | 82 | 1.02 | 49 |  |  | EC50 [1, 7]: 0.141 µM
19 | Clc1ccc2c(n1)N1CCNCC1C2 (racemic) [Example 6, (RS) 7-Chloro-1,2,3,4,10,10a-6-aza-hexahydropyrazino[1,2-a]-7-indole fumarate] | 100 | 1.68 | 47 |  |  | EC50 [1, 7]: 0.174 µM
20 | CSc1ccc2c(c1)N1CCNCC1C2 (racemic) [Example 13, (RS) 7(Methylthio)-1,2,3,4,10,10a-hexahydropyrazino[1,2-a]indole fumarate] | 87 | 0.176 | 59 | 0.086 |  | 
21 | Clc1ccc2c(n1)N1CCNCC1C2 (racemic) (as salt: fumarate) [Example 6, (RS) 7-Chloro-1,2,3,4,10,10a-6-aza-hexahydropyrazino[1,2-a]-7-indole fumarate] |  |  |  |  | 148 °C | 
